The values below come from article PMC7356104, “Oral Administration of Artemisone for the Treatment of Schistosomiasis: Formulation Challenges and In Vivo Efficacy” (Pharmaceutics, 2020).

One may read the solubility as the dissolved amount per volume that the medium holds. The aqueous solubility is the dissolved amount per volume that the medium holds.

In brackets after ≈: the same amount, converted by molar mass. Like-named read-outs stand apart in the source and are kept apart here. Where only a bound is given, the exact number is not on record here.

For one series, the system named is S. mansoni. The settings on record: cited from earlier work.
Series [1] can be described thus: Solubility of artemisone in organic solvents, excipients and SMEDDS (HPLC). It counts as physicochemical. The settings on record: thermodynamic from solid. The protocol: The solubility of artemisone in organic solvents and lipid excipients was determined according to the following procedure: 200 mg artemisone/1.0 mL excipient were placed on an orbital mixing heating plate (Torrey Pines Scientific, Carlsbad, CA, USA) at 25 °C for 24 h under light exclusion. Samples were centrifuged and the supernatant filtered and diluted with ethanol as necessary before HPLC analysis. Samples were prepared in triplicates.
(§1) Artemisone was quantified with high-performance liquid chromatography (HPLC) (Agilent/HP 1100 HPLC series, high-pressure pump, degasser, UV-VIS detector and autosampler, now Agilent Technologies, Inc., Santa Clara, CA, USA), using a method we developed and validated according to the ICH guidelines, over a range of 10–500 µg artemisone/mL (Table 1).

A short description of series [2]: Storage stability of artemisone in SMEDDS and PBS at 30 °C (HPLC). It counts as physicochemical. As to conditions: 80 µg/mL in PBS pH 6.5, 30 °C, light exclusion. The protocol: as §1
Artemisone (50 mg/g) was dissolved in SMEDDS-100. For SMEDDS-50-ART and SMEDDS-20-ART, PBS was added to the drug-loaded formulation to give the microemulsions, containing 25 mg/g and 10 mg/g artemisone, respectively. A solution of 80 µg/mL artemisone in PBS pH 6.5 Ph.Eur. was prepared and used as control, the pH found for SMEDDS-50 and SMEDDS-20 also being around 6.5. Triplicates of all three preparations were stored in glass vials with Teflon sealed lids at 30 °C under light exclusion. Samples were taken after 14, 28, 42, 56, and 92 days and analyzed via HPLC to monitor drug stability.

For series [3] the following is noted: H2O; cited from earlier work.
Details of series [4]: method as in PMID 21596127. As to conditions: oral Pheroid technology formulation, mice; cited from earlier work.
Series [5] concerns P. falciparum NF54 parasites. As to the kind of experiment: In vitro efficacy on P. falciparum in culture. It counts as cell-based, Plasmodium falciparum. As to conditions: 48 h. The protocol: P. falciparum NF54 parasites were cultivated at 4% hematocrit in RPMI 1640 medium, 0.5% Albumax II (Invitrogen, Carlsbad, CA, USA), 0.25% sodium bicarbonate, and 0.1 mg/mL gentamicin. 200 µL of parasite suspension at 1% parasitemia were incubated in a Nunc microplate, in 96 flat-bottom wells, at 37 °C, in an atmosphere of 5% oxygen, 5% carbon dioxide and 90% nitrogen. Drug dilutions were added in triplicates in 25 µL. After 48 h P. falciparum parasitaemias were estimated by microscopic determination of the percent of parasitized erythrocytes in a total of 5000 erythrocytes, using Giemsa stained blood smears that were prepared from triplicate individual wells.

Details of series [6]: method as in earlier work. The settings on record: cited from earlier work.
Where [7] appears, read: similar procedure (single oral dose).

For `CO[C@H]1O[C@@H]2O[C@@]3(C)CC[C@H]4[C@H](C)CC[C@@H]([C@H]1C)[C@@]24OO3` [artemether], the “reduction of worm load” value in the series on S. mansoni (setting [7]) is given as “more than 90%”.
For `C[C@H]1[C@H](N2CCSCC2)O[C@@H]2O[C@@]3(C)CC[C@H]4[C@H](C)CC[C@@H]1[C@@]24OO3` [artemiside], the “reduction of worm load” value in the series with S. mansoni (setting [7]) is given as “more than 90%”.
As to `C[C@H]1[C@H](N2CCS(=O)(=O)CC2)O[C@@H]2O[C@@]3(C)CC[C@H]4[C@H](C)CC[C@@H]1[C@@]24OO3` [artemisone, 4-[(1R,4S,5R,8S,9R,10R,12R,13R)-1,5,9-trimethyl-11,14,15,16-tetraoxatetracyclo-hexadecan-10-yl]-1,4-thiazinane1,1-dioxide], the solubility at 24 h is 55 mg/mL (≈ 137 mM) in series [1] (oil or lipid, in Polysorb ID 46, 25 °C); 62.5 mg/mL (≈ 156 mM) in series [1] (oil or lipid, in medium chain mono- and diglycerides (Capmul MCM), 25 °C); 22.5 mg/mL (≈ 56 mM) in series [1] (oil or lipid, in medium chain triglycerides (MCT), 25 °C); over 100 mg/mL in series [1] (organic solvent or mixture, in DMF, 25 °C); over 100 mg/mL in series [1] (organic solvent or mixture, in DMSO, 25 °C); over 100 mg/mL in series [1] (organic solvent or mixture, in acetone, 25 °C). Besides, the solubility at 24 h in series [1] (organic solvent or mixture, in dichloromethane, 25 °C) is over 100 mg/mL; in series [1] (organic solvent or mixture, in ethanol, 25 °C), 30 mg/mL (≈ 74.7 mM); in series [1] (organic solvent or mixture, in hexane, 25 °C), 0.8 mg/mL (≈ 1.99 mM); in series [1] (organic solvent or mixture, in methanol, 25 °C) it was 50 mg/mL (≈ 125 mM); in series [1] (organic solvent or mixture, in propylene glycol, 25 °C), 8.5 mg/mL (≈ 21.2 mM). The “artemisone recovered after three months” value in series [2] was determined as 51.5 ± 0.4%. Besides, the aqueous solubility in series [3] was 0.089 mg/mL (≈ 0.222 mM). In series [4], the “higher absorption of artemisone compared to an aqueous vehicle containing 10% DMSO” value was 5.57 fold. The “reduction of worm load” value in the series with S. mansoni (setting [7]) is given as “more than 90%”. The “concentration at which parasitaemia was completely blocked” value in series [5] was “below 11 ng/mL”. The same molecule showed an ED50 in series [5] (parasitaemia by Giemsa smears) of 1 to 2 ng/mL. Besides, the “degradation in aqueous medium” value in series [6] (pH 3) is listed as “complete degradation was observed within one week”. The “intact compound remained after one month” value was 20% in series [6] (pH 5) and 75% in series [6] (pH 7.4).
In the case of `C[C@H]1[C@H](OC(=O)CCC(=O)O)O[C@@H]2O[C@@]3(C)CC[C@H]4[C@H](C)CC[C@@H]1[C@@]24OO3` [artesunate], the “reduction of worm load” value in the series with S. mansoni (single oral dose 400 mg/kg in 3% ethanol and 7% Tween 80, 21 days post-infection) is 66%.
